According to patent publication US20240101584A1, “TARGETED DELIVERY OF 1,2,4,5 TETRAOXANE COMPOUNDS AND THEIR USES” (Westlake University, priority 2021, published 2024):
Read-outs that look alike come from different tables or passages of the source.

What was measured:
[1] = test system: MDA-MB-231 xenograft tumors; test: Mouse xenograft breast tumors (MDA-MB-231); assay type: in vivo, Nude mice; details: for histopathological observations of liver, heart, kidney, spleen and lungs: H&E staining, compared to the controls
Method: FIG. 12A is a graph showing the tumor volume of xenograft tumors versus time after s.c. injection of DMSO, PTX, compound 37b, or compound 48. Nude mice were injected s.c. with MDA-MB-231 cells (10^6) and randomly allocated to one of the six treatment groups (n=5): (i) DMSO, (ii) Paclitaxel (PTX), 5 mg/kg, (iii) compound 37b, 5 mg/kg, (iv) compound 37b, 10 mg/kg, (v) compound 48, 5 mg/kg, or (vi) compound 48, 10 mg/kg. When control animals (DMSO) began to appear tumor ulceration (25 days), all animals in the experiment were sacrificed and photographed.
FIG. 12B are photographs of the tumor from sacrificed animals of different treatment groups after 25 days. FIG. 12C is a graph showing the tumor weight of xenograft tumors versus time after s.c. injection of DMSO, PTX, compound 37b, or compound 48. Data are shown as mean±SEM. * P≤0.05 versus DMSO group. FIG. 12D are photographs showing the morphological observation of mice tissue treated with DMSO, paclitaxel, compound 37b, or compound 48 with H&E staining on heart, liver, kidney, lungs, and spleen tissues (200×).

[2] = test system: HEYA8 CSCs; test: Protective effect of Q-VD-OPh, DFX and Fer-1 on HEYA8 CSCs; assay type: cell-based; details: for cell death pathway: HEYA8 cancer cells and CSCs
Method: FIGS. 5A-5B are bar graphs showing the protective effect of Q-VD-OPh, deferasirox (DFX) and ferrostatin-1 (Fer-1) on HeyA8 cancer stem cells (FIG. 5A) and HeyA8 spheres (FIG. 5B) after treatment with compound 48 and compound 37b, respectively, for 24 h. *P≤0.05, **P≤0.01 versus non-pretreated group. Data are plotted as the mean±SD, n=3 biologically independent samples. N.S., no statistically significant change. All P values were determined using two-tailed Student's t-test.

[3] = test system: MCF7; test: Viability IC50, MCF7 cells; assay type: cell-based; details: Homo sapiens, Table 12a
[4] = test system: Huh7; test: Viability IC50, Huh7 cells; assay type: cell-based; details: Homo sapiens, Huh-7; Table 12a
[5] = test system: HCT116 cells; test: MTT viability assay, HCT116 cells; assay type: cell-based, human; details: for IC50: Homo sapiens, HCT-116; for fold more cytotoxic to HCT116 cells than OZ277: comparator OZ277; for fold more cytotoxic than OZ439 on HCT116: comparator OZ439 (literature)
Method: (§1) The anticancer activities of the exemplary compounds listed in Example 1 were tested against human cervix Hela cells, mammary breast cancer MDA-MB-231 cells, human hepatocellular HepG2 cells, human colorectal HCT116 cells, mammary ductal T47D cells, non-cancerous NIH3T3 cells, dog's kidney MDCK cells, and mouse brain bEnd.3 cells, respectively.

[6] = test system: PLC; test: Viability IC50, PLC cells; assay type: cell-based; details: Table 12a
[7] = test system: HEYA8 CSCs; test: CellTiter-Glo viability, HeyA8 cancer stem cells (spheres); assay type: cell-based; details: for IC50: HEY A8, cancer stem cell spheres, CellTiter-Glo, 48 hrs, n = 3, read-out: IC50 HeyA8sp (HEYA8 CSCs); for cell viability of ovarian cancer cells and cancer stem cells (FIG. 3C, words): both ovarian cancer cells and CSCs
[8] = test system: U2OS; test: Viability IC50, U2OS cells; assay type: cell-based; details: Homo sapiens, Table 12a
[9] = test system: MDA-MB-231 cells; test: MTT viability assay, MDA-MB-231 cells; assay type: cell-based; details: for IC50: Homo sapiens; for fold more potent than FINO2 in eradicating MDA-MB-231 cells: comparator FINO2; for fold more cytotoxic than OZ439 on MDA-MB-231: comparator OZ439 (literature)
Method: as §1

[10] = test system: lipid ROS in MDA-MB-231 cells; test: C11-BODIPY lipid ROS detection in MDA-MB-231 cells; assay type: cell-based; details: 48 5 μM, 37b 1 μM, RSL3 0.5 μM; 6 h incubation
Method: FIG. 11 is a bar graph showing the detection of lipid ROS with compound 48 (5 μM), compound 37b (1 μM), or RSL3 (0.5 μM) by BODIPY 581/591 C11 after 6 h incubation in MDA-MB-231 cells. **P≤0.01 versus DMSO group. Data are plotted as the mean±SD, n=3 biologically independent samples. All P values were determined using two-tailed Student's t-test.
Since lipid peroxidation is the evidence about ferroptosis, C11-BODIPY probe is used to validate the lipid ROS generated by tetraoxanes. It is a ratiometric membrane-targeted probe which changes the emission from 590 nm to 510 nm upon the detection of lipid ROS. Here, MDA-MB-231 cells were treated with 48, 37b and RSL3, respectively. The lipid ROS levels were quantified by flow cytometry. Untreated group gave weak signal in FL1 channel (FIG. 11).

[11] = test system: HeyA8 cells; test: CellTiter-Glo viability, adherent HeyA8 ovarian cancer cells; assay type: cell-based; details: HEY A8; adherent cancer cells; CellTiter-Glo, 48 hrs, n = 3
[12] = test system: Hela cells; test: MTT viability assay, Hela cells; assay type: cell-based, human; details: Homo sapiens, HeLa, 48 h incubation, mean, n = 3, read-out: IC50 against Hela cells
Method: as §1

[13] = test system: NIH3T3 cells; test: MTT viability assay, non-cancerous NIH3T3 cells; assay type: cell-based; details: Mus musculus, NIH3T3
Method: as §1

[14] = MTT, 48 h incubation, mean, n = 3, read-out: IC50 against HCT116 cells
[15] = Table 12b, read-out: IC50 HCT116
[16] = MDA-MB-231, Table 12b, read-out: IC50 MDA-MB-231
[17] = MTT, 48 h incubation, mean, n = 3, read-out: IC50 against NIH3T3 cells
[18] = Table 12b, read-out: IC50 NIH3T3

SMILES | histopathological observations of liver, heart, kidney, spleen and lungs [1] | cell death pathway [2] | IC50 [3] [µM] | IC50 [4] [µM] | IC50 [5, 14] [µM] | IC50 [5, 15] [µM] | fold more cytotoxic to HCT116 cells than OZ277 [5] [fold] | fold more cytotoxic than OZ439 on HCT116 [5] [fold] | IC50 [6] [µM] | IC50 [7] [µM] | cell viability of ovarian cancer cells and cancer stem cells (FIG. 3C, words) [7] | IC50 [8] [µM] | IC50 [9, 16] [µM] | fold more potent than FINO2 in eradicating MDA-MB-231 cells [9] | fold more cytotoxic than OZ439 on MDA-MB-231 [9] [fold] | lipid ROS (BODIPY 581/591 C11, FL1, flow cytometry) [10] | IC50 [11] [µM] | IC50 [12] [µM] | IC50 [13, 17] [µM] | IC50 [13, 18] [µM] | also measured
CC(C)(C)C1CCC2(CC1)OOC1(CCC(OC(=O)NCCC[P+](c3ccccc3)(c3ccccc3)c3ccccc3)CC1)OO2.[Br-] (stereo not shown) [Compound 37b, (3-((((12-(tert-butyl)-7,8,15,16-tetraoxadispiro[5.2.59.26]hexadecan-3-yl)oxy)carbonyl)amino)propyl)triphenylphosphonium bromide] | no histological alterations | induced ferroptosis instead of apoptosis | 2.4 ± 1.7 | 3.8 ± 0.9 | 0.6 ± 0.3 | 0.6 ± 0.3 | 113 | 106 | 2.7 ± 0.02 | 1.1 ± 0.4 | could diminish the cell viability | 3.4 ± 0.2 | 0.4 ± 0.05 | ≥ 25 fold | 64 | lipid ROS was generated | 1.4 ± 0.07 | 1.6 | 4.6 | 4.6 ± 1.9 | tumor growth compared with vehicle control ([1]; 10 mg/kg, MDA-MB-231 xenograft, 25 days): effective in inhibiting tumor growth; selectivity index (IC50 of NIH3T3 divided by IC50 on HCT116) ([5]; Table 12b, value in bracket): (>7.6); selectivity index (IC50 of NIH3T3 divided by IC50 on MDA-MB-231) ([9]; Table 12b, value in bracket): (>11.5); fold more cytotoxic to MDA-MB-231 cells than OZ277 ([9]; comparator OZ277): 87 fold
CC(C)(C)C1CCC2(CC1)OOC1(CCC(OC(=O)NCCC[N+](C)(Cc3ccccc3)Cc3ccccc3)CC1)OO2.[I-] (stereo not shown) [Compound 48, N,N-dibenzyl-3-((((12-(tert-butyl)-7,8,15,16-tetraoxadispiro[5.2.59.26]hexadecan-3-yl)oxy)carbonyl)amino)-N-methylpropan-1-aminium iodide] | no histological alterations | ferroptosis | 8.7 ± 4.1 | 5.2 ± 0.4 | 2.2 ± 0.3 | 2.2 ± 0.3 | 44 | 29 | 3.9 ± 0.6 | 1.2 ± 0.5 | could diminish the cell viability | 4.4 ± 0.6 | 2.4 ± 0.7 | at least 4 fold | 10 | lipid ROS was generated | 2.3 ± 0.7 | 6.3 | 29 ± 5.7 | 29 ± 5.7 | tumor size ([1]; 5 mg/kg and 10 mg/kg, MDA-MB-231 xenograft, 25 days): reduced the tumor size; abnormal behavior or weight loss during treatment period ([1]; MDA-MB-231 xenograft mice, entire treatment period): no abnormal behavior or weight loss; effect of Fer-1 co-treatment on HEYA8 CSCs ([2]; 24 h treatment): majority of the CSCs remained unaffected; effect of deferasirox (DFX) on cell death in HEYA8 CSCs ([2]; 24 h treatment): rescue part of the cell death; IC50 ([5]; Table 13, experimental data, MTT, 48 hrs, n = 3, read-out: IC50 HCT116): 2.2 ± 0.3 µM; selectivity index (IC50 of NIH3T3 divided by IC50 on HCT116) ([5]; Table 13, value in bracket): (>13); fold more cytotoxic to HEYA8 CSCs than non-cancerous cells [7]: at least 24 fold; IC50 ([9]; MDA-MB-231, 48 h, MTT, 48 h incubation, mean, n = 3, read-out: IC50 against MDA-MB-231 cells): < 4 µM; IC50 ([9]; MDA-MB-231, 48 h, Table 13, experimental data, MTT, 48 hrs, n = 3, read-out: IC50 MDA-MB-231): 2.4 ± 0.7 µM; selectivity index (IC50 of NIH3T3 divided by IC50 on MDA-MB-231) ([9]; Table 13, value in bracket): (>12); IC50 ([13]; Table 13, experimental data, MTT, 48 hrs, n = 3, read-out: IC50 NIH3T3): 29 ± 5.7 µM
